Assay [1] deals with T1, ASIC1a (Homo sapiens, UniProt P78348).
T1 sequence (P78348 1-528): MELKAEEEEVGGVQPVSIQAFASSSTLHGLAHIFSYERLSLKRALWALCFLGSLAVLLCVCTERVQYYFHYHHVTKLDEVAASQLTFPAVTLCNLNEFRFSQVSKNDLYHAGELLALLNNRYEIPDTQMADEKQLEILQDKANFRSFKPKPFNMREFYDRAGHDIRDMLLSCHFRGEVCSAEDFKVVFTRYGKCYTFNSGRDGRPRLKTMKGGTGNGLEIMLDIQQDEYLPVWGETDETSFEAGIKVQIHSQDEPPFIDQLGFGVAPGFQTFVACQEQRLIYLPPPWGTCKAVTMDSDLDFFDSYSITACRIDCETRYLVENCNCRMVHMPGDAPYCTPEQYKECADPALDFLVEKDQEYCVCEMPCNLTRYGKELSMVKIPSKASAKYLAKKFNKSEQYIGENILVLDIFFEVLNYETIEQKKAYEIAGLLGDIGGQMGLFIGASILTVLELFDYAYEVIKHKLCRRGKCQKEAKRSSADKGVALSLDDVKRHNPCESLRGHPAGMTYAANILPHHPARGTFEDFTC
Description: Two-electrode voltage clamp of acid-induced currents in Xenopus laevis oocytes. As to conditions: for inhibition at 50 µM: Xenopus oocytes, read-out: % inh. at 50 μM (Xo). In kind it is cell-based. On the set-up: expressed in transfected cells; host or cells: Xenopus laevis oocytes, nuclear microinjection of an expression vector such as pCDNA3. The method, then:
Screening and Bioanalysis of ASIC Antagonists in Xenopus laevis oocytes
This example describes the in vitro assessment of the activity of the compounds of the present invention.
Two-electrode voltage clamp electrophysiological assays in Xenopus laevis oocytes expressing gated ion channels are performed as follows:
Oocytes are surgically removed from adult Xenopus laevis and treated for 2 h at room temperature with 1 mg/ml type I collagenase (Sigma) in Barth's solution under mild agitation. Selected oocytes at stage IV-V are defolliculated manually before nuclear microinjection of 2.5-5 ng of a suitable expression vector, such as pCDNA3, comprising the nucleotide sequence encoding a gated ion channel subunit protein. In such an experiment, the oocytes express homomultimeric proton-gated ion channels on their surface. In an alternate experiment, one, two, three or more vectors comprising the coding sequences for distinct gated ion channel subunits are co-injected in the oocyte nuclei. In the latter case, oocytes express heteromultimeric proton-gated ion channels. For example, ASIC2a and/or ASIC3 subunits in pcDNA3 vector are co-injected at a 1:1 cDNA ratio. After 2-4 days of expression at 19° C. in Barth's solution containing […] gentamicin and 1.8 mM CaCl2, gated ion channels are activated by applying an acidic solution (pH<7) and currents are recorded in a two electrode voltage-clamp configuration, using an OC-725B amplifier (Warner Instruments). Currents are acquired and digitized at 500 Hz on an Apple Imac G3 computer with an A/D NB-MIO-16XL interface (National Instruments) and recorded traces are post-filtered at 100 Hz in Axograph (Axon Instruments) (Neher, E. and Sakmann, B. (1976) Nature 260:799-802). Once impaled with the microelectrodes, oocytes are continuously superfused at 10-12 ml/min with a modified Ringer's solution containing 97 mM NaCl, 2 mM KCl, 1.8 mM CaCl2, and 10 mM HEPES brought to pH 7.4 with NaOH (Control Ringer). Test Ringer solution is prepared by replacing HEPES with MES and adjusting the pH to the desired acidic value. Compounds of the present invention are prepared in both the Control and Test Ringer solutions and applied to oocytes at room temperature through a computer-controlled switching valve system. Osmolarity of all solutions is adjusted to 235 mOsm with choline chloride. Similarly, recordings can also be acquired in an automated multichannel oocytes system as the OpusExpress™ (Molecular Devices, Sunnyvale, USA).
FIGS. 1A and 2A illustrate the inhibitory effects of Compounds 12 and 44 on acid-induced activation of recombinant homomeric hASIC1a channels. FIGS. 1A and 2A show the dose-dependent inhibition of the acid-induced hASIC1a currents recorded from Xenopus laevis oocytes using the two-electrode voltage clamp method (as described in this example) in the absence or presence of increasing concentration of the compounds.

Assay [2] deals with T1, ASIC1a. Description: Calcium-imaging (FLIPR) of MES-induced calcium response in ASIC1a expressing HEK293 cells. In kind it is cell-based. On the set-up: host or cells: HEK293. How it is done: Identification of ASIC Antagonists Using Calcium-Imaging
ASIC1a expressing HEK293 cells are grown in culture medium (DMEM with 10% FBS), in polystyrene culture flasks (175 mm 2) at 37° C. in a humidified atmosphere of 5% CO2. Confluency of cells should be 80-90% on day of plating. Cells are rinsed with 10 ml of PBS and cells are re-suspended by addition of culture medium and trituration with a 25 ml pipette.
The cells are seeded at a density of approximately 1×10^6 cells/ml (100 μl/well) in black-walled, clear bottom, 96-well plates pre-treated with 10 mg/l poly-D-lysin (75 μl/well for ≧30 min). Plated cells are allowed to proliferate for 24 h before loading with dye.
Loading with Fluorescent Calcium Dye Fluo-4/AM
Fluo-4/AM (1 mg, Molecular Probes) is dissolved in 912 μl DMSO. The Fluo-4/AM stock solution (1 mM) is diluted with culture medium to a final concentration of 2 μM (loading solution).
The culture medium is aspirated from the wells, and 50 μl of the Fluo-4/AM loading solution is added to each well. The cells are incubated at 37° C. for 30 min.
After the loading period, the loading solution is aspirated and the cells are washed twice with 100 μl modified Assay Buffer (145 mM NaCl, 5 mM KCl, 5 mM CaCl2, 1 mM MgCl2, 10 mM HEPES, pH 7.4) to remove extracellular dye. Following the second wash, 100 μl modified Assay Buffer is added to each well and the fluorescence is measured in FLIPR™ or FlexStation™ (Molecular Devices, USA), or any other suitable equipment known to the skilled in the art.
Temperature: Room temperature (20-22° C.)
First addition: 50 μl test solution at a rate of 30 μl/sec and a starting height of […]
Second addition: 50 μl MES solution (20 mM, 5 mM final concentration) at a rate of 35 μl/sec and a starting height of 150 μl.
Reading intervals: pre-incubation—10 sec×7 and 3 sec×3 antagonist phase—3 sec×17 and 10 sec×12
Addition plates (compound test plate and MES plate) are placed on the right and left positions in the FLIPR tray, respectively. Cell plates are placed in the middle position and the ASIC1a program is effectuated. FLIPR will then take the appropriate measurements in accordance with the interval settings above. Fluorescence obtained after stimulation is corrected for the mean basal fluorescence (in modified Assay Buffer).
Hit Confirmation and Characterization of Active Substances
The MES-induced peak calcium response, in the presence of test substance, is expressed relatively to the MES response alone. Test substances that block the MES-induced calcium response are re-tested in triplicates. […]

Some results are limits rather than exact numbers.

Results on two molecules are retold here after patent US20080004282A1, “Compositions and methods for modulating gated ion channels” (PainCeptor Pharma Corporation, priority 2006, published 2008).

By IC50 is commonly meant the concentration that inhibits the measured activity by half. In the case of `CCN1CCc2c(-c3ccccc3)cc(C#N)c(N)c2C1` [Compound 12, 8-Amino-2-ethyl-5-phenyl-1,2,3,4-tetrahydro-isoquinoline-7-carbonitrile], on ASIC1a [1], the inhibition at 50 µM was over 50%. Moreover, the IC50 at ASIC1a [1] (Xenopus laevis oocytes, three point dose-response, read-out: IC50, half maximal inhibition of the acid-evoked response in hASIC1a) was determined as 5.9 µM.

In the case of `CCN1CCc2c(-c3cc(Cl)ccc3OC)cc(C#N)c(N)c2C1` [Compound 44], on ASIC1a [1], it took 8.5 µM to reach half-maximal inhibition (IC50) and the inhibition at 50 µM is over 50%. In addition, the IC50 at ASIC1a [2] was under 10 µM.
